Broadly, the IC50 is the midpoint of a concentration-inhibition curve. As a reminder, the solubility is the concentration that dissolves in the medium under given conditions. A low value points to a poorly soluble substance. As a reminder, the Papp A→B is the apparent permeability from the apical to the basolateral side of a cell layer. A higher Papp A→B goes with ready permeation. As a reminder, the Papp B→A is how fast a substance crosses the layer from the basolateral side. One may read the half-life as the time needed for the level to fall by half in the phase considered.

The text below walks through data of patent US20220332695A1, “UREA DERIVATIVES AS CB1 ALLOSTERIC MODULATORS” (RTI INTERNATIONAL, priority 2019, published 2022).

One data set relates to MDCK-MDR1 cells. As to the kind of experiment: Bidirectional MDCK-MDR1 permeability assay. The data set is classed as in vitro ADME. The procedure: (§1) Permeability Assessment. Bidirectional MDCK-MDR1 permeability assay was performed by Paraza Pharma Inc. (Montreal, Canada). MDCK-mdr1 cells at passage 5 were seeded onto permeable polycarbonate supports in 12-well Costar Transwell plates and allowed to grow and differentiate for 3 days. On day 3, culture medium (DMEM supplemented with 10% FBS) was removed from both sides of the transwell inserts and cells were rinsed with warm HBSS. After the rinse step, the chambers were filled with warm transport buffer (HBSS containing 10 mM HEPES, 0.25% BSA, pH 7.4) and the plates were incubated at 37° C. for 30 min prior to TEER (Trans Epithelial Electric Resistance) measurements.
(§2) The buffer in the donor chamber (apical side for A-to-B assay, basolateral side for B-to-A assay) was removed and replaced with the working solution (10 μM test article in transport buffer). The plates were then placed at 37° C. under light agitation. At designated time points (30, 60 and 90 min), an aliquot of transport buffer from the receiver chamber was removed and replenished with fresh transport buffer. Samples were quenched with ice-cold ACN containing internal standard and then centrifuged to pellet protein. Resulting supernatants are further diluted with 50/50 ACN/H2O (H2O only for Atenolol) and submitted for LC-MS/MS analysis. Reported apparent permeability (Papp) values were calculated from single determination.
(§3) Atenolol and propranolol were tested as low and […] permeability references.
(§4) The apparent permeability (Papp, measured in cm/s) of a compound is determined according to the following formula […]: […]
(§5) where dQ/dt is the net rate of appearance in the receiver compartment; A is the area of the Transwell measured in cm^2 (1.12 cm^2); Ci is the initial concentration of compound added to the donor chamber; and 60 is the conversion factor for minute to second.

The nature of data set [1]: Metabolic stability in rat liver microsomes. The data set is classed as in vitro ADME. The procedure: Metabolic stability assessment: Compounds were incubated with rat liver microsomes at 37° C. for a total of 45 minutes. The reaction was performed at pH 7.4 in 100 mM potassium phosphate buffer containing 0.5 mg/mL of rat liver microsomal protein. Phase I metabolism was assessed by adding NADPH to a final concentration of 1 mM and collecting samples at time points 0, 5, 15, 30 and 45 minutes. All collected samples were quenched 1:1 with ice-cold stop solution (1 μM labetalol and 1 μM glyburide in acetonitrile) and centrifuged to remove precipitated protein. Resulting supernatants were further diluted 1:4 with acetonitrile:water (1:1). Samples were analyzed by LC/MS/MS and calculations for half-life, and in-vitro clearance were accomplished using Microsoft Excel (2007).
Background: Liver microsomes are vesicles of endoplasmic reticulum, rich in cytochrome P450 enzymes.

In data set [2] the target is T1, hCB1R (Homo sapiens, UniProt P21554). As to the kind of experiment: [35S]GTPγS binding assay in HEK cells stably expressing human CB1R. It counts as biochemical. Set-up: expressed in transfected cells; host or cells: HEK (HEK293) cells, membranes. As to conditions: [CP] = 100 nM, mean (95% confidence interval), read-out: hCB1R [35S]GTPγS binding assay IC50. Background: GTPγS is a poorly hydrolysed GTP analogue; its binding reports G protein activation.
T1 sequence (P21554 whole entry): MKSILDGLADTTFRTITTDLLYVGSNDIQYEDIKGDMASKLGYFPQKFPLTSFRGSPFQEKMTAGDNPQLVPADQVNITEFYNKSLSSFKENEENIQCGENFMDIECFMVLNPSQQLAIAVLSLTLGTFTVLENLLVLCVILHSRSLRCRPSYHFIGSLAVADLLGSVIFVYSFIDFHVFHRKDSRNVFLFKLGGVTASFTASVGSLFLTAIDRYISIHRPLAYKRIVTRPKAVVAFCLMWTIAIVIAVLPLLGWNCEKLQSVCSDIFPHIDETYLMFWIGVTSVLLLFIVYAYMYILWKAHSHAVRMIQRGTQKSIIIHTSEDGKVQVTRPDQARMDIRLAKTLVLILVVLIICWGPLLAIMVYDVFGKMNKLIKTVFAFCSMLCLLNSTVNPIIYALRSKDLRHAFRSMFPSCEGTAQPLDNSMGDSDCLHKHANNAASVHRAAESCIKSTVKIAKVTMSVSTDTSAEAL
Method: (§6) [^35S]GTPγS Binding Assay: For receptor signaling, membranes (10 μg protein) from either ICR mouse cerebellum mice (6-8 weeks old; Enviga
(§7) Non-specific binding was determined by adding 30 μM unlabeled GTPyS. Concentration response curves for allosteric modulators were conducted in the presence of CP55,940 (100 nM or 1 μM) to calculate 1050 values.
(§8) For [^35S]GTPyS experiments, data were normalized to maximal CP55,940 (100 nM) stimulation in the absence of test compound (i.e., vehicle=100%).

Data set [3] concerns locomotion in rats. As to the kind of experiment: Locomotion in rats. As to conditions: rat, 10 mg/kg i.p.
From the text: (§9) Locomotion is presented as total distance (in millimeters (mm)) versus time (in minutes) after administration. The effects of treatment with vehicle is also shown as a control.
Data set [4] deals with T1, hCB1R. The data set is described as follows: Calcium mobilization assay, antagonist mode against CP55,940. Further details: expressed in transfected cells; host or cells: CHO-RD-HGA16 cells (parental line from Molecular Devices). It counts as cell-based. (In general: Calcium assays in cells follow changes in intracellular calcium, usually with a dye or a luminescent sensor.)
Method: Calcium Mobilization Assay: CHO-RD-HGA16 cells (Molecular Devices, San Jose, Calif., United States of America) stably expressing the human CB1 receptor were plated into 96-well black-walled assay plates at 25,000 cells/well in 100 pL of Ham's F12 (supplemented with 10% fetal bovine serum, 100 units of penicillin/streptomycin, and 100 µg/mL Normocin) and incubated overnight at 37° C., 5% CO2. Calcium 5 dye (Molecular Devices, San Jose, Calif., United States of America) was reconstituted according to the manufacturer's instructions. The reconstituted dye was diluted 1:40 in prewarmed (37° C.) assay buffer (1x HBSS, 20 mM HEPES, 2.5 mM probenecid, pH 7.4 at 37° C.). Growth medium was removed, and the cells were gently washed with 100 pL of prewarmed (37° C.) assay buffer. The cells were incubated for 45 min at 37° C., 5% CO2 in 200 pL of the diluted Calcium 5 dye solution. […] Serial dilutions of the test compounds were prepared at 10x the desired final concentration in 2.25% BSA/4.5% DMSO/4.5% EtOH/assay buffer. After the dye loading incubation period, the cells were pretreated with 25 pL of the test compound serial dilutions and incubated for 15 min at 37° C. After the pretreatment incubation period, the plate was read with a FLIPR Tetra (Molecular Devices, San Jose, Calif., United States of America). Calcium-mediated changes in fluorescence were monitored every 1 s over a 90 s time period, with the Tetra adding 25 pL of the CP55,940 EC80 concentration at the 10s time point (excitation/emission: 485/525 nm). Relative fluorescence units (RFU) were plotted against the log of compound concentrations. For agonist screens, the above procedure was followed except that cells were pretreated with 2.25% BSA/4.5% DMSO/4.5% EtOH/assay buffer and the Tetra added single concentration dilutions of the test compounds prepared at 10x the desired final concentration in 0.25% BSA/0.5% DMSO/0.5% EtOH/assay buffer. Test compound RFUs were compared to the CP55,940 Emax RFUs to generate % Emax values.
Data Analysis: For calcium mobilization experiments, data were fit to a three-parameter logistic curve to generate IC50 values (GraphPad Prism 6.0, Graphpad Software, San Diego, Calif., United States of America).

The next data set concerns the target T2, mouse CB1R (Mus musculus, UniProt P47746).
T2 construct: membranes (10 μg protein) from either ICR mouse cerebellum mice; from tissue; host or cells: cerebellum membranes of ICR mice
As to the kind of experiment: [35S]GTPγS binding assay in mouse cerebellum membranes. The data set is classed as biochemical.

Data set [5] can be described thus: Kinetic solubility assessment. The data set is classed as physicochemical. To be noted: phosphate buffer, 2 hours room temperature. The procedure:
The solution was agitated on a VX-2500 multi-tube vortexer (VWR International, Radnor, Pa., United States of America) for 2 hours at room temperature. Following agitation, the sample was filtrated on a glass-fiber filter (1 μm) and the eluate was diluted 400-fold with a mixture of acetonitrile: water (1:1). On each experimental occasion, nicardipine and imipramine were assessed as reference compounds for low and high solubility, respectively. All samples were assessed in triplicate and analyzed by LC-MS/MS using electrospray ionization against standards prepared in the same matrix.

Data set [6] has as its target T1, hCB1R. As to the kind of experiment: Real-time BRET CAMYEL cAMP assay in HEK293 cells expressing human CB1. The data set is classed as cell-based. To be noted: [CP] = 100 nM; forskolin-stimulated cAMP. Further details: expressed in transfected cells; host or cells: HEK293 cells stably transfected with human CB1, transiently transfected with pcDNA3L-His-CAMYEL sensor.
Method: cAMP Assay: The cAMP assay was performed as previously described. […] Briefly, forskolin (FSK)-stimulated cyclic adenosine monophosphate (cAMP) production was measured in real-time using a transfected bioluminescence resonance energy transfer (BRET) cAMP sensor. The plasmid encodes a cAMP binding domain (Epac1) flanked by yellow fluorescent protein (YFP) and Renilla Luciferase (RLuc) assay, the latter of which can oxidize coelenterazine H and produce a photon as a byproduct. When cAMP is bound to the Epac1 domain, it separates RLuc and YFP so only Rluc emits a photon at a wavelength of 460 nm. When cAMP is not bound, RLuc can excite YFP, emitting light at wavelength 535 nm. A plate reader measures both wavelengths and their ratio, 460/535, is calculated to quantify cAMP levels where increases in the ratio indicate increases in cAMP. Human Embryonic Kidney 293 (HEK293) cells stably transfected with the human cannabinoid type-1 (C131) were maintained at 37° C. at 5% CO2 and seeded in 100 mM dishes for transfection. The next day, cells were given fresh growth media and transfected with 5 pg of pcDNA3L-His-CAMYEL using linear polyethyleneimine (25 kDa, Polysciences, Warrington, Pennsylvania, United States of America) in 1:6 DNA:PEI (ATCC, Manassas, Virginia, United States of America) ratio. The next day, cells were lifted using 1 mM EDTA in PBS and spun down at 200xg for 5 min. The supernatant was removed, and cells were resuspended in growth media and plated on poly-D-lysine (Sigma Aldrich, St. Louis, Missouri, United States of America) coated white 96 well plates at 60,000 cells per well, filling 2 columns of 8 wells each per plate, i.e. 8 samples in duplicate per plate (Perkin Elmer, Waltham, Massachusetts,
United States of America). The following day, media was removed, cells were rinsed with PBS and buffers/reagents/drugs added as following: At 0 min, 175 of stimulation buffer (5 mg/ml bovine serum albumin in HBSS including Ca^2+ and Mg^2+); at 10 min, 25 μL of allosteric modulators added; at 15 min: 25 μL coelenterazine added (5 μM final); at 25 min, 25 μL of forskolin (10 final) with or without CP55,940 (100 nM final) added. […] Ratio of 460/535 is calculated for each time point and plotted across time and area under the curve analysis is conducted for each replicate and averaged by condition/day where each day serves as an independent experiment. Data were calculated as %FSK using the formula [(sample-basal)/(forskolin-basal)×100]. IC50 values were calculated from these normalized concentration-response data using Prism 6 (Graphpad Software, San Diego, Calif., United States of America) using 3 parameter non-linear regression. Data are plotted as mean of at least N=3 independent experiments either normalized to forskolin (concentration response data) or the calculated 460/535 BRET ratio (time course data).

Data set [7] deals with T1, hCB1R. As to the kind of experiment: Intrinsic activity: basal [35S]GTPγS binding in the absence of CP55,940. The data set is classed as biochemical. To be noted: up to 10 μM.
The test system of a further data set is P-gp (MDR1). The data set is described as follows: Bidirectional MDCK-MDR1 permeability assay. It counts as in vitro ADME. To be noted: dog, pH 7.4; MDCK-MDR1, 10 μM test article. The procedure: as §1, §2, §3, §4, §5
In data set [8] the test system is cocaine-seeking behavior in rats. As to the kind of experiment: Cocaine-induced reinstatement of extinguished cocaine-seeking behavior. To be noted: rat, 10 mg/kg i.p. pretreatment. The data set is classed as in vivo, male Sprague-Dawley rats. The procedure: In both graphs, the effect of treatment with vehicle (unfilled bars) is shown as a control. *p<0.05.
Adult male Sprague-Dawley rats (Harlan, Indianapolis, Ind., United States of America) weighing 280-300 g were used in the study. Animals were housed individually on a 12/12 hr light/dark cycle (behavioral experiments were conducted during the light period) with free access to water and food except during experimental sessions.
The reinstatement procedure has been previously described. See Jing et al., Drug Alcohol Depend. 2014, 143, 251-256; and Thorn et al., Neuropsychopharmacology 2014, 39, 2309-2316. Briefly, rats were surgically implanted with a chronic indwelling jugular catheter. […]
Data analyses: Data are expressed as mean ±S.E.M. Differences in active lever responding between the last extinction session and reinstatement session were determined with paired t tests (within subjects comparison). The effects of compounds 2 on reinstatement were analyzed by a one-way analysis of variance (ANOVA) followed by post hoc Bonferroni's test (between subjects comparison). The effects of compounds 34 on reinstatement was analyzed by Student's t test. […]

Data set [9] has as its system locomotion in rats. To be noted: rat, in vivo, ip, 10 mg/kg.
From the text: as §9
Where [10] appears, read: CHO cells expressing human CB1R, against CP55,940 (100 nM), mean ± SEM, read-out: hCB1R Calcium assay IC50.
[11] abbreviates: mouse cerebellum membrane, [CP] = 100 nM, read-out: mCB1R GTPγS IC50.

Converted amounts (≈) assume the structure as drawn. “And” between values parts separate entries of the source, which are not always exact repeats. Equal values may be shown once. “Also recorded” adds a separate entry of the source. Read-outs that look alike come from different tables or passages of the source.

T2 sequence (P47746 whole entry): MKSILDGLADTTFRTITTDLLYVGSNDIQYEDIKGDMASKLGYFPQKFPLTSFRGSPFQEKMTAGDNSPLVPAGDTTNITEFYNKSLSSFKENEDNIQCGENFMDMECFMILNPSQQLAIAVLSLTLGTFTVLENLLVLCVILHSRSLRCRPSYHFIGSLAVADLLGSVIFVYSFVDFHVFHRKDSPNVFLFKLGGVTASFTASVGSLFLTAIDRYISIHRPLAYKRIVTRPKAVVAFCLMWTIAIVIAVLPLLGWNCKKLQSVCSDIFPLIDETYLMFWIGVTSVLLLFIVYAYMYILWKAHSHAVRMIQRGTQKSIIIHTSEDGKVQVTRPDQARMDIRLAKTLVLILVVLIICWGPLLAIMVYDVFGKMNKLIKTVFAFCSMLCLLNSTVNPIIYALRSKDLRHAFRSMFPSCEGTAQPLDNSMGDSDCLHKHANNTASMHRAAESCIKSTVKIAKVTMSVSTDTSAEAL
Method for mouse CB1R: as §6, §7, §8
Select compounds were evaluated in the CP55,940-induced [^35S]GTPyS binding assays using mouse cerebellum membrane at two CP55,940 concentrations, 100 nM and 1μM.

On to `O=C(Nc1ccc(Cl)cc1)Nc1ccc(-c2ccccc2)s1` [Compound 11, 1-(4-Chlorophenyl)-3-(5-phenylthiophen-2-yl)urea], for which the “Efflux BA/AB” value in the data set with MDCK-MDR1 cells (MDCK-MDR1) worked out at 0.7. The “Papp A to B” value with MDCK-MDR1 cells (MDCK-MDR1, 10 μM test article) was 1.6 ± 0.1 ×10^−6 cm/s. Also, the “Papp B to A” value in the data set with MDCK-MDR1 cells (MDCK-MDR1, 10 μM test article) is reported as 1.1 ± 0.4 ×10^−6 cm/s. In data set [1] (mean ± SD), the Clearance was 22.2 ± 6.5 µL/min/mg. Also, the half-inhibitory concentration (IC50) at hCB1R [2] turned out to be 524 nM; at hCB1R [4] (setting [10]), 7 nM; at mouse CB1R (setting [11]) it was 63 nM; on hCB1R [6], 1760 nM. In addition, the effect on locomotion result in the data set with locomotion in rats [3] is on record as “significant reduction of locomotion”. Besides, the solubility at 2 h in data set [5] was 1.5 µM (≈ 0.493 µg/mL). The “inverse agonism (in words)” value at hCB1R [7] is “some degree of inverse agonism; also recorded: very little inverse agonism”.

As to `O=C(Nc1ccc(Cl)cc1)Nc1ccc(-c2ccncc2)s1` [Compound 35, 1-(4-Chlorophenyl)-3-[5-(pyridin-4-yl)thiophen-2-yl]urea], the concentration for half-maximal inhibition (IC50) at hCB1R [2] was 298 nM; on hCB1R [4] (setting [10]) it was 79 ± 13 nM; at mouse CB1R (setting [11]) it was 287 nM and 204 nM; at mouse CB1R (mouse cerebellum membrane, [CP] = 1 uM, read-out: mCB1R GTPγS IC50), 129 nM and 120 nM; against hCB1R [6], 1800 nM. Further, at hCB1R [7], the “inverse agonism (in words)” value is “some degree of inverse agonism”.

As to `O=C(NCCc1cccc(Cl)c1)Nc1ccc(Cl)cc1` [Compound 68, 3-(4-Chlorophenyl)1-[2-(3-chlorophenyl)ethyl]urea], in the data set with P-gp (MDR1), the Papp A→B at 90 min, 10 µM was greater than 15 ×10⁻⁶ cm/s and the Papp B→A at 90 min, 10 µM was greater than 15 ×10⁻⁶ cm/s. For the same compound, the half-life in data set [1] (pH 7.4, NADPH, mean ± SD, read-out: Half-life) was found to be 9.6 min. Also, the microsomal CLint in data set [1] (pH 7.4, mean ± SD, read-out: Clearance) turned out to be 144 ± 8.4 µL/min/mg. Also, the “effect on cocaine-induced reinstatement of cocaine-seeking behavior” value in data set [8] is on record as “good in vivo efficacy; also recorded: attenuated cocaine-induced reinstatement of cocaine-seeking behavior”. Besides, the IC50 at hCB1R [4] was found to be 30 ± 4 nM. At mouse CB1R (Tables 4-6, CP55,940 concentration not stated, mean (95% confidence interval), read-out: mCB1R [35S]GTPγS binding assay IC50), the IC50 was found to be 561 nM. Besides, the solubility at 2 h in data set [5] (aqueous buffer, kinetic from dmso stock) was less than 0.5 µM. The effect on locomotion entry with locomotion in rats [9] is given as “did not affect locomotion”.
